This note sets out measurements from patent US4351948A, “Imidazole hydrazone derivatives” (priority 1980, dated 1982).

Each structure is given as a SMILES string. In brackets after ≈: the same amount, converted by molar mass. Read-outs that look alike come from different tables or passages of the source.

For test [1], the system named is Desulfovibrio desulfuricans API-SW2. The test is described as follows: Minimal inhibitory concentration against anaerobic bacteria. Conditions: for Minimal Inhibitory Concentration: 24 hours at 37° C.
The test system of test [2] is Bacteroides uniformis ATCC 8492. The description is as above. The settings on record: ATCC8492, 24 h.
Test [3] has as its system Clostridium sporogenes ATCC 19404. The test is described as above. The test is classed as cell-based. Conditions: ATCC19404, 24 h.
For test [4], the system named is Desulfovibrio desulfuricans API-BREWER. Described as above. Conditions: 24 h.
In test [5] the test system is C. perfringens (ATCC 13124). The test is described as follows: microbe, parasite or virus in culture. The test is classed as cell-based. The settings on record: Clostridium perfringens, ATCC13124, 24 h.
In test [6] the test system is Desulfovibrio desulfuricans API-CORE. The test is described as follows: Minimal inhibitory concentration against anaerobic bacteria. Conditions: 24 h.
For test [7], the system named is Bacteroides fragilis ATCC 23745. The test is described as above. The settings on record: ATCC23745, 24 h.
Where [8] appears, read: read-out: Minimal Inhibitory Concentration, Test 1, 24 hours at 37° C.
The mark [9] stands for this setting: read-out: Minimal Inhibitory Concentration, Test 2, 24 hours at 37° C.
The mark [10] stands for this setting: read-out: Minimal Inhibitory Concentration, Test 3, 24 hours at 37° C.

Consider `Cc1ncc([N+](=O)[O-])n1CCO` [Metronidazole, 2-methyl-5-nitro-1H-imidazole-1-ethanol, reference compound], for which the MIC in test [1] (Desulfovibrio desulfuricans, APISW2, 24 h, read-out: Minimal Inhibitory Concentration) worked out at 0.25 µg/mL (≈ 1.46 µM); in test [2] (setting [8]), 0.5 µg/mL (≈ 2.92 µM); in test [2] (setting [9]), 0.25 µg/mL (≈ 1.46 µM); in test [2] (setting [10]), 0.25 µg/mL (≈ 1.46 µM); in test [3] (Test 1, 24 hours at 37° C.), 0.5 µg/mL (≈ 2.92 µM); in test [3] (Test 2, 24 hours at 37° C.), 0.25 µg/mL (≈ 1.46 µM). For the same molecule, the MIC in test [3] (Test 3, 24 hours at 37° C.) turned out to be 0.75 µg/mL (≈ 4.38 µM); in test [4] (setting [8]), 0.5 µg/mL (≈ 2.92 µM); in test [4] (setting [9]), 0.5 µg/mL (≈ 2.92 µM); in test [4] (setting [10]) it was 0.5 µg/mL (≈ 2.92 µM); in test [5], 0.3 µg/mL (≈ 1.75 µM); in test [6] (setting [8]) it was 0.5 µg/mL (≈ 2.92 µM). The MIC in test [6] (setting [9]) was determined as 0.25 µg/mL (≈ 1.46 µM); in test [6] (setting [10]) it was 0.25 µg/mL (≈ 1.46 µM); in test [7] (setting [8]) it was 0.75 µg/mL (≈ 4.38 µM); in test [7] (setting [9]) it was 0.75 µg/mL (≈ 4.38 µM); in test [7] (setting [10]) it was 0.5 µg/mL (≈ 2.92 µM). For the same molecule, the “Minimal Inhibitory Concentration” value in test [1] (Test 2) and in test [1] (Test 3) was 0.25 mg/L each time.
